Reference: EP0414422A2, “2-Oxo-1-oxa-8-azaspiro [4,5] decane derivatives, processes for their preparation and pharmaceutical compositions thereof” (RICHTER GEDEON VEGYESZETI GYAR R.T., priority 1989, dated 1991)

Tests used:
aggregated mice = assay: Protective effect against the amphetamine group toxicity on aggregated mice; assay type: in vivo; details: Mus musculus; male CFLP mice, p.o., one hour before 21 mg/kg d-amphetamine intraperitoneally; surviving animals counted after 24 hours; read-out: Protection against amph. ED₅₀
Method: (§1) Male CFLP mice with a body-weight of 18 to 25 g and male Hannover-Wistar rats with a body-weight of 160 to 180 g were used for the pharmacological investigations. The test compounds were orally administered in a 2% Tween-80 suspension. The pharmacological investigating methods used are described hereinafter.
1. Protective effect against the amphetamine group toxicity on aggregated mice
The method described in Arch. Int. Pharmacodyn. 163, 79 (1966) was used.
The mice were treated with various doses of the test substances. After one hour following the above treatment, the animals were intraperitoneally given 21 mg/kg of d-amphetamine and then the groups consisting of 10 animals each were tightly packed together in plexiglass boses of 15x15x10 cm in size. After 24 hours had elapsed following the amphetamine treatment the surviving animals were counted. The ED₅₀ values of the substances were calculated from the percentage of the surviving animals. The ED₅₀ value is the dose protecting 50% of the animals from death.

rats = assay: Inhibition of the conditioned avoidance response (CAR inhibition) on rats; assay type: in vivo; details: Rattus norvegicus, po; male Hannover-Wistar rats, p.o., treated 3 hours before the experiment; dose causing 50% inhibition of the conditioned avoidance response; read-out: CAR ED₅₀
Text: as §1
2. Inhibition of the conditioned avoidance response (CAR inhibition) on rats
The method of D. Bovet et al. (Neuropsychopharmacology, ed. R. Rothlin Vol. 2, p. 142, Elsevier Publishing Co. N.Y. 1961) was used.
Male rats weighing 160 to 180 g were conditioned in an automated 6-channel Shuttle box for 10 days. Each daily session consisted of 50 cycles and each one cycle lasted for 40 seconds. Within a single cycle an intermittent light stimulus for 15 seconds as conditioned stimulus, and an electric stimulus of 0.8 mA for 10 seconds as unconditioned stimulus, were used with an intersignal time of 15 seconds. When an animal changed its half-court during the conditioned stimulus period, the stimulus was abolished and the footshock was avoided (conditioned avoidance response; abbreviated: CAR). Animals with a performance of at least 80% on the 8th to 10th days of conditioning were considered to be useful for the study. 3 hours before the experiment the animals were treated with various doses of the test substances and the ED₅₀ value, i.e. the dose causing an 50% inhibition of the conditioned avoidance response of the animals, was determined. Groups consisting of 10 animals each were used for each dose.

mice [1] = assay: Measurement of the spontaneous body temperature; assay type: in vivo; details: 30 mg/kg orally, rectal temperature 5 hours following treatment, related to untreated control animals
Method: as §1
3. Measurement of the spontaneous body temperature
Groups consisting of 10 mice each were orally treated with 30 mg/kg doses of the test substances. After treatment the rectal temperature of the male mice was determined each hour for 5 hours. The average values of temperature decrease related to the body temperature of the untreated control animals (37.1±0.8 °C) 5 hours following treatment are given in Table 1.

mice [2] = assay: Inhibition of the aggressive behaviour of the mice; assay type: in vivo; details: Mus musculus, po; male mice, p.o., 3 hours following the treatment, electric stimulation of 1 mA; read-out: Antiaggressive effect, ED₅₀
Method: as §1
4. Inhibition of the aggressive behaviour of the mice
The method described in J. Pharmacol. Expt. Therap. 125, 28 (1959) was used.
Pairs of male mice weighing 20 to 25 each were treated with the test compounds and then placed in cages. 3 hours following the treatment an aggressive behaviour was induced on the animals by using an electric stimulation of 1 mA current intensity. Each group consisted of 5 pairs of mice. The ED₅₀ values were calculated from the percentage of animal pairs showing no aggressive behaviour as a result of the treatment. (ED₅₀ value is the dose inhibiting the aggressive behaviour on 50% of the animals.)

Acute toxicity = details: male, Hannover-Wistar, rat, in vivo, po; rats, p.o., deaths observed for 14 days; read-out: LD₅₀
Method: as §1
Rats were treated with various doses of the test compounds. […] The LD₅₀ value, i.e. the dose causing the death of half of the animals, was determined from the percentage of the dead animals.

SMILES	ED50 (aggregated mice)	ED50 (rats)	Decrease in the spontaneous temperature (mice [1])	ED50 (mice [2])	LD50 at 14 days (Acute toxicity)
CN1C(=O)OC2(CCN(CCCN3c4ccccc4Sc4ccc(Cl)cc43)CC2)C1(C)O (centres unmarked) [F, 8-[3-(2-chloro-10H-phenothiazin-10-yl)propyl]-3,4-dimethyl-4-hydroxy-2-oxo-1-oxa-3,8-diazaspiro[4,5]decane]	0.7 mg/kg	4.6 mg/kg	-9.1 C°		
CN(C)CCCN1c2ccccc2Sc2ccc(Cl)cc21 [CPZ, 2-chloro-10-(3-dimethylaminopropyl)phenothiazine, reference compound]	7.2 mg/kg	17.1 mg/kg	-7.9 C°	4.3 mg/kg	225 mg/kg
C=C1N(C)C(=O)OC12CCN(CCCN1c3ccccc3Sc3ccc(C(F)(F)F)cc31)CC2 [C, 3-methyl-4-methylene-2-oxo-8-[3-(2-trifluoromethyl-10H-phenothiazin-10-yl)propyl]-1-oxa-3,8-diazaspiro[4,5]decane]	0.7 mg/kg	1.9 mg/kg	-9.9 C°	1.2 mg/kg	235 mg/kg
C=C1N(CC)C(=O)OC12CCN(CCCN1c3ccccc3Sc3ccc(Cl)cc31)CC2 [B, 8-[3-(2-chloro-10H-phenothiazin-10-yl)propyl]-3-ethyl-4-methylene-2-oxo-1-oxa-3,8-diazaspiro[4,5]decane]	1.6 mg/kg	1.6 mg/kg	-7.4 C°	10.9 mg/kg	500 mg/kg
C=C1N(C)C(=O)OC12CCN(CCCN1c3ccccc3Sc3ccc(Cl)cc31)CC2 [Compound A, 8-[3-(2-chloro-10H-phenothiazin-10-yl)propyl]-3-methyl-4-methylene-2-oxo-1-oxa-3,8-diazaspiro[4,5]decane]	0.6 mg/kg	6 mg/kg	-8.8 C°	1.7 mg/kg	353 mg/kg
CCCN1C(=O)OC2(CCN(CCCN3c4ccccc4Sc4ccc(C(F)(F)F)cc43)CC2)C1(C)O (centres unmarked) [I, 4-hydroxy-4-methyl-2-oxo-3-propyl-8-[3-(2-trifluoromethyl-10H-phenothiazin-10-yl)propyl]-1-oxa-3,8-diazaspiro[4,5]decane]	4.2 mg/kg	5.6 mg/kg	-7.0 C°		
C=C1N(CC)C(=O)OC12CCN(CCCN1c3ccccc3Sc3ccc(C(F)(F)F)cc31)CC2 [D, 3-ethyl-4-methylene-2-oxo-8-[3-(2-trifluoromethyl-10H-phenothiazin-10-yl)propyl]-1-oxa-3,8-diazaspiro[4,5]decane]	4.1 mg/kg	6.8 mg/kg	-8.2 C°	2.5 mg/kg	500 mg/kg
CCN1C(=O)OC2(CCN(CCCN3c4ccccc4Sc4ccc(Cl)cc43)CC2)C1(C)O (centres unmarked) [G, 8[3-(2-chloro-10H-phenothiazin-10-yl)propyl]-3-ethyl-4-hydroxy-4-methyl-2-oxo-1-oxa-3,8-diazaspiro[4,5]decane]	2.4 mg/kg	6.9 mg/kg	-8.1 C°		
CN1C(=O)OC2(CCN(CCCN3c4ccccc4Sc4ccc(C(F)(F)F)cc43)CC2)C1(C)O (centres unmarked) [H, 3,4-dimethyl-4-hydroxy-2-oxo-8-[3-(2-trifluoromethyl-10H-phenothiazin-10-yl)propyl]-1-oxa-3,8-diazaspiro[4,5]decane]	0.9 mg/kg	3.1 mg/kg	-9.6 C°		
C=C1N(CCC)C(=O)OC12CCN(CCCN1c3ccccc3Sc3ccc(Cl)cc31)CC2 [E]	1.8 mg/kg	10.6 mg/kg	-5.6 C°	2 mg/kg	
